The values that follow come from patent publication EP2524688B1, “Composition for modified release comprising ranolazine” (ratiopharm GmbH, priority 2011, dated 2012).

This data set in a line: Stability under stressed conditions (assay and degradation products). Format: physicochemical. To be noted: storage over 5 weeks at 40 °C with 75 % RH and open cap. As to the method: In Table 1 assay and degradation products results for ranolazine per se, a pharmaceutical composition of the present invention, comprising ranolazine and HPMC-AS as well as a comparative pharmaceutical composition known from the prior art under stressed conditions are shown. Herein the stressed conditions are defined as storage over 5 weeks at 40 °C with 75 % RH and open cap.

For the compound `COc1ccccc1OCC(O)CN1CCN(CC(=O)Nc2c(C)cccc2C)CC1` (racemic) [Ranolazine (raw material), (RS)-N-(2,6-Dimethylphenyl)-2-[4-[2-hydroxy-3-(2-methoxyphenoxy)propyl]piperazin-1-yl]acetamide], the “Assay (%)” value came out at 99.6%. For the same compound, the “Biggest impurity % (RRt)” value (RRt in brackets in the row below) is reported as 0.066%.
